# US12171755B2, “PAPD5 inhibitors and methods of use thereof” (Children's Medical Center Corporation, priority 2017, dated 2024)
# Biological target: T1, PAPD5 (Homo sapiens, UniProt Q8NDF8)
# T1 construct: made in house
# Assay: High-throughput luminescence (KinaseGlo) RNA polyadenylation assay, ATP utilization by recombinant PAPD5
# Format: biochemical
# Conditions: Table 4 (entries of Table 5), ratio of luminescence with inhibitor to DMSO; for Fold-change determined at compound concentration 33 μM: 33 μM compound; for Fold-change determined at compound concentration 100 μM: 100 μM compound, higher = higher inhibition
# Method in brief: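 Values are ratios of inhibitor to DMSO luminescence, so larger numbers mean less ATP consumed. Screening was run in duplicate with a 2 h room-temperature reaction of recombinant PAPD5, ATP and oligo RNA substrate plus compound. Residual ATP was detected after a 10 min KinaseGlo step.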
# T1 sequence (Q8NDF8 68-698 isoform Q8NDF8-5): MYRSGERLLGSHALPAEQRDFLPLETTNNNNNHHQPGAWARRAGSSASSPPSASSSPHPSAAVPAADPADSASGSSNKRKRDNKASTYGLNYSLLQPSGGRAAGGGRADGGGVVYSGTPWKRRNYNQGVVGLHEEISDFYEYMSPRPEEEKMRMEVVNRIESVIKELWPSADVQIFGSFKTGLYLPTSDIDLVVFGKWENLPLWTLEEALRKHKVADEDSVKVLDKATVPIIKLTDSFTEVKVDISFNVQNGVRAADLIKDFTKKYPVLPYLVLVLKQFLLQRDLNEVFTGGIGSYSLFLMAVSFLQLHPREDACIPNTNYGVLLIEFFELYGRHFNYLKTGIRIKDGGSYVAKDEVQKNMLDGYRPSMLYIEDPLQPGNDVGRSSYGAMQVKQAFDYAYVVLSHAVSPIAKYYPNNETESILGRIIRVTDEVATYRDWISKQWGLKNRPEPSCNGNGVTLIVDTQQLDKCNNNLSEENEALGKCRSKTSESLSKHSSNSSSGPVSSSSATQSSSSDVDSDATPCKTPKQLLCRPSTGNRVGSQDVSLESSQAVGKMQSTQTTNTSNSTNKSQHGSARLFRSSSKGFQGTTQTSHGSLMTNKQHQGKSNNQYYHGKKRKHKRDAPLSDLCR
Fold-change determined at compound concentration 33 μM,Fold-change determined at compound concentration 100 μM,Compound
1.094,1.352,"Cc1c(C(=O)NCc2ccccc2)oc2c1-c1[nH]ncc1CC2 [Entry 175, N-benzyl-8-methyl-4,5-dihydro-1H-furo[2,3-g]indazole-7-carboxamide]"
1.151,1.563,"Cc1c2c(=O)n(-c3nc4ccccc4s3)[nH]c2cc(=O)n1CCc1cnc[nH]1 [Entry 176, 5-(2-(1H-imidazol-5-yl)ethyl)-2-(benzo[d]thiazol-2-yl)-4-methyl-1,2-dihydro-3H-pyrazolo[4,3-c]pyridine-3,6(5H)-dione]"
1.053,1.4,"Cc1c2c(=O)n(-c3nc4ccccc4s3)[nH]c2cc(=O)n1Cc1ccc(C(=O)O)cc1 [Entry 177, 4-[[2-(1,3-benzothiazol-2-yl)-4-methyl-3,6-dioxo-1H-pyrazolo[4,3-c]pyridin-5-yl]methyl]benzoic acid]"
1.217,1.633,"COc1ccc(-c2n[nH]c3nc(-c4ccc(O)c(O)c4)cc(C(=O)O)c23)cc1 [Entry 178, 6-(3,4-dihydroxyphenyl)-3-(4-methoxyphenyl)-1H-pyrazolo[3,4-b]pyridine-4-carboxylic acid]"
1.112,1.309,"COc1ccc(-c2[nH]nc3nc(-c4cc(Br)ccc4OC)cc(C(=O)O)c23)cc1 [Entry 179, 6-(5-bromo-2-methoxyphenyl)-3-(4-methoxyphenyl)-2H-pyrazolo[3,4-b]pyridine-4-carboxylic acid]"
1.303,1.736,"Cc1ccc(-c2n[nH]c3nc(-c4ccc(O)c(O)c4)cc(C(=O)O)c23)cc1 [Entry 180, 6-(3,4-dihydroxyphenyl)-3-(p-tolyl)-1H-pyrazolo[3,4-b]pyridine-4-carboxylic acid]"
1.124,1.272,"CCOc1cc(-c2cc(C(=O)O)c3c(-c4ccccc4)[nH]nc3n2)ccc1O [Entry 181, 6-(3-ethoxy-4-hydroxyphenyl)-3-phenyl-2H-pyrazolo[3,4-b]pyridine-4-carboxylic acid]"
1.1781,1.35,"O=C(O)c1cc(-c2ccc(C(F)(F)F)cc2)nc2n[nH]c(-c3ccccc3)c12 [Entry 182, 3-phenyl-6-[4-(trifluoromethyl)phenyl]-2H-pyrazolo[3,4-b]pyridine-4-carboxylic acid]"
1.152,1.346,"COc1ccc(-c2n[nH]c3nc(-c4cc(OC)c(OC)c(OC)c4)cc(C(=O)O)c23)cc1 [Entry 183, 3-(4-methoxyphenyl)-6-(3,4,5-trimethoxyphenyl)-1H-pyrazolo[3,4-b]pyridine-4-carboxylic acid]"
1.245,1.294,"CCOC(=O)c1ccc(NC(=O)CCc2c(C)nc3c(c(C)nn3C)c2C)cc1 [Entry 184, ethyl 4-[3-(1,3,4,6-tetramethylpyrazolo[3,4-b]pyridin-5-yl)propanoylamino]benzoate]"
1.163,1.531,"CCCCN(CCCC)CCCNC(=O)c1ccc2c(c1)sc1nc(-c3ccc(OC)cc3)cn12 [Entry 186, N-[3-(dibutylamino)propyl]-2-(4-methoxyphenyl)imidazo[2,1-b][1,3]benzothiazole-7-carboxamide]"
1.108,1.262,"Cc1ccc(-c2cn3c(n2)sc2ccc(C(=O)NCCCN4CCCCCC4)cc23)cc1 [Entry 187, N-[3-(azepan-1-yl)propyl]-2-(4-methylphenyl)imidazo[2,1-b][1,3]benzothiazole-6-carboxamide]"
